Source: patent US20060019892A1 (Florida Atlantic University, priority 2003, published 2006)
Non-standard residues stand in square brackets, D forms with d. No end group written: not given here. Hyp = O=C(O)[C@@H]1C[C@@H](O)CN1

Tested on: primary cultures of rat neonatal cortex (cultured cortical neurons)
Type: cell-based

## A-O-A-N-S-V-W-S (A[Hyp]ANSVWS) [gla-2]
  effect on Ca^++ flux in the cells: reducing Ca^++ flux
  modulation of Ca^++ flux in cultured neurons from rat cortex: modulate Ca^++ flux
